Data from patent US20050101678A1, “Antibacterial composition” (priority 2000, published 2005).

Experiments:
Assay type in all cases: cell-based
[1] = system: Ax 26 Corynebacterium sp.; experiment: MIC microtiter plate test, axilla strain Ax 26; conditions: for Bacteriostatic activity Corynebact. Ax 26: Table 7, concentration for at least 80% reduction in growth during 24 hours; for Minimal inhibitory concentration (MIC) Ax 26: Table 1, growth inhibited by at least 80%, 24 h at 36° C.
From the text: (§1) The different bacterial strains had been isolated from the human axilla by current microbiological practice. They were taxonomically identified by cell morphology, gram-reaction, and biochemical tests included in the Api coryne test kit (BioMerieux, France). Strain Staphylococcus epidermidis Ax25 was identified by fatty acid methyl ester analysis (FAME; German type strain collection DSMZ, Germany). The strains were maintained on Tryptic soy […] plates, this standard medium being amended with 5 g per Liter of Tween 80 and 1 g of Soybean lecithin. Plates were incubated at 36° C. for a period 48 hours. The bacteria were then swabbed from the plates and suspended in 4 ml of Müller-Hinton broth amended with 100 mg of Tween 80 per Liter (MH-Tween) and incubated again at 36° C. for 16 hours. Following incubation the bacterial suspensions were diluted in MH-Tween to obtain a final cell density of 10^6 colony forming units per ml. For each fragrance material four microtiter plates were used in the example, each microtiter plate having 8 rows, A-H, and 12 columns, 1-12.
(§2) To each column a diluted suspension of a different test organism was distributed, 100 μl per well. 1% stock solutions of the fragrance materials were then prepared in MH-Tween broth. The fragrance material was dispersed by ultrasonication into the aqueous medium to obtain a homogenous emulsion. 100 μl per well of this emulsion was then added to the first row of the microtiter plates already containing the target organisms. Serial dilution series were then prepared starting at row A and continuing until row G, each time removing 100 μl from a well and transferring it to the next well. In this way fragrance concentrations of 0.5%, 0.25%, 0.125%, 0.0625%, 0.03125%, 0.0156%, and 0.0078% were tested for their antibacterial efficacy. The reference compound Triclosan was tested at 16-fold lower concentrations. The plates were covered with plastic films and incubated for 24 h at 36° C. with shaking at 250 rpm. The turbidity developing in the microtiter plates was then examined after 24 h to determine microbial growth. The minimal concentration of fragrance inhibiting the growth of an organism by at least 80% was determined as the minimal inhibitory concentration (MIC).
(§3) Ax 25 was identified as Staphylococcus. epidermidis by FAME analysis. Identification with the Api Coryne test kit yielded the following species assignments for the remainder of the strains: Ax 26 Corynebacterium sp.; Ax 3 Corynebacterium bovis; Ax 7 Corynebacterium group G; Ax 10 Corynebacterium jeikeium; Ax 11 Corynebacterium jeikeium; Ax 12 Corynebacterium jeikeium; Ax 15 Corynebacterium jeikeium; Ax 20 Corynebacterium striatum/amycolatum; and Ax 19 Corynebacterium jeikeium. The strains were isolated from the axilla of 8 human volunteers. Based on biochemical tests and colony morphology all strains were distinct from each other, even the several strains all belonging to Corynebacterium jeikeium.

[2] = system: Corynebacteria; experiment: Activity against Corynebacteria; conditions: statement in words
From the text: With 2-methoxy-4-(5,5,6-trimethylbicyclo[2.2.1]hept-2-yl)cyclohexan-1-ol an outstanding activity is achieved.
as §1
To each column a diluted suspension of a different test organism was distributed, 100 μl per well. 1% stock solutions of the fragrance materials were then prepared in MH-Tween broth. […]

[3] = system: Ax 15 Corynebacterium jeikeium; experiment: MIC microtiter plate test, axilla strain Ax 15; conditions: for Minimal inhibitory concentration (MIC) Ax 15: Table 1, growth inhibited by at least 80%, 24 h at 36° C.
From the text: as §1, §2, §3

[4] = system: Ax 12 Corynebacterium jeikeium; experiment: MIC microtiter plate test, axilla strain Ax 12; conditions: Table 1; growth inhibited by at least 80%, 24 h at 36° C.
From the text: as §1
as §2, with “The minimal concentration of fragrance inhibiting the growth of an organism by at least 80% was determined as the minimal inhibitory concentration (MIC).” left out

[5] = system: Ax 10 Corynebacterium jeikeium; experiment: MIC microtiter plate test, axilla strain Ax 10; conditions: Table 1; growth inhibited by at least 80%, 24 h at 36° C.
From the text: as §1
as §2, with “The minimal concentration of fragrance inhibiting the growth of an organism by at least 80% was determined as the minimal inhibitory concentration (MIC).” left out

[6] = system: Staphylococcus epidermidis Ax25; experiment: MIC microtiter plate test, axilla strain Ax 25; conditions: for Minimal inhibitory concentration (MIC) Ax 25: Table 1, growth inhibited by at least 80%, 24 h at 36° C.
From the text: as §1, §2, §3

[7] = system: Ax 3 Corynebacterium bovis; experiment: MIC microtiter plate test, axilla strain Ax 3; conditions: Table 1; growth inhibited by at least 80%, 24 h at 36° C.
From the text: as §1
as §2, with “The minimal concentration of fragrance inhibiting the growth of an organism by at least 80% was determined as the minimal inhibitory concentration (MIC).” left out

[8] = system: Ax 7 Corynebacterium group G; experiment: MIC microtiter plate test, axilla strain Ax 7; conditions: for Minimal inhibitory concentration (MIC) Ax 7: Table 1, growth inhibited by at least 80%, 24 h at 36° C.
From the text: as §1, §2, §3

[9] = system: Ax 20 Corynebacterium striatum/amycolatum; experiment: MIC microtiter plate test, axilla strain Ax 20; conditions: Table 1; growth inhibited by at least 80%, 24 h at 36° C.
From the text: as §1
as §2, with “The minimal concentration of fragrance inhibiting the growth of an organism by at least 80% was determined as the minimal inhibitory concentration (MIC).” left out

[10] = system: Ax 11 Corynebacterium jeikeium; experiment: MIC microtiter plate test, axilla strain Ax 11; conditions: Table 1; growth inhibited by at least 80%, 24 h at 36° C.
From the text: as §1
as §2, with “The minimal concentration of fragrance inhibiting the growth of an organism by at least 80% was determined as the minimal inhibitory concentration (MIC).” left out

[11] = system: Ax 19 Corynebacterium jeikeium; experiment: MIC microtiter plate test, axilla strain Ax 19; conditions: Table 1; growth inhibited by at least 80%, 24 h at 36° C.
From the text: as §1
To each column a diluted suspension of a different test organism was distributed, 100 μl per well. 1% stock solutions of the fragrance materials were then prepared in MH-Tween broth. The fragrance material was dispersed by ultrasonication into the aqueous medium to obtain a homogenous emulsion. […]

[12] = Table 7, concentration for at least 80% reduction in growth during 24 hours

| Compound | Bacteriostatic activity Corynebact. Ax 26 [1] | Minimal inhibitory concentration (MIC) Ax 15 [3] | Minimal inhibitory concentration (MIC) Ax 12 [4] | Minimal inhibitory concentration (MIC) Ax 10 [5] | Minimal inhibitory concentration (MIC) Ax 25 [6] | Minimal inhibitory concentration (MIC) Ax 3 [7] | Minimal inhibitory concentration (MIC) Ax 26 [1] | Minimal inhibitory concentration (MIC) Ax 7 [8] | Minimal inhibitory concentration (MIC) Ax 20 [9] | Minimal inhibitory concentration (MIC) Ax 11 [10] | further results |
| --- | --- | --- | --- | --- | --- | --- | --- | --- | --- | --- | --- |
| COC1CC(C2CC3CC2C(C)C3(C)C)CCC1O (single isomer, unassigned) [Peak B] | 0.0016 percent (w/v) |  |  |  |  |  |  |  |  |  |  |
| COC1CC(C2CC3CC2C(C)C3(C)C)CCC1O (centres unmarked) [2-methoxy-4-(5,5,6-trimethylbicyclo[2.2.1]hept-2-yl)cyclohexan-1-ol] |  |  |  |  |  |  |  |  |  |  | activity against Corynebacteria [2]: highest activity |
| COC1CCC(C2CC3CC2C(C)C3(C)C)CC1O (centres unmarked) [2-methoxy-5-(5,5,6-trimethyl-bicyclo[2.2.1]hept-2-yl)cyclohexan-1-ol] |  |  |  |  |  |  |  |  |  |  | activity against Corynebacteria [2]: highest activity |
| CC1=CCC(/C=C\C(C)C(C)O)C1(C)C (centres unmarked) [Ebanol] |  | 0.2500 % weight/volume | 0.2500 % weight/volume | 0.2500 % weight/volume | 0.1250 % weight/volume | 0.1250 % weight/volume | 0.1250 % weight/volume | 0.1250 % weight/volume | 0.1250 % weight/volume | 0.2500 % weight/volume |  |
| CC(C)=CCCC(C)=CCCC(C)=CCO [Farnesol, 3,7,11-trimethyl-2,6,10-dodecatrien-1-ol] | 0.0078 percent (w/v) |  |  |  |  |  | 0.0078 % weight/volume |  |  |  |  |
| CCC(=CCC1CC=C(C)C1(C)C)CO (centres unmarked) [Radjanol] |  | 0.125. % weight/volume |  |  | 0.1250 % weight/volume |  | 0.0625 % weight/volume | 0.0625 % weight/volume |  |  |  |
| CC1=CCC(CCC(C)C(C)O)C1(C)C (centres unmarked) [Sandalore] |  | 0.2500 % weight/volume | 0.1250 % weight/volume | 0.1250 % weight/volume | 0.1250 % weight/volume | 0.1250 % weight/volume | 0.1250 % weight/volume | 0.1250 % weight/volume | 0.1250 % weight/volume | 0.1250 % weight/volume |  |
| Oc1cc(Cl)ccc1Oc1ccc(Cl)cc1Cl [Triclosan, 2,4,4′-trichloro-2′-hydroxy-diphenyl-ether] | 0.0025 percent (w/v) | 0.0029 % weight/volume | 0.0017 % weight/volume | 0.0020 % weight/volume | 0.000015 % weight/volume | 0.0029 % weight/volume | 0.0015 % weight/volume | 0.0029 % weight/volume | 0.0107 % weight/volume | 0.0029 % weight/volume | Bacteriostatic activity Corynebact. Ax 15 [3, 12]: 0.0030 percent (w/v); Minimal inhibitory concentration (MIC) Ax 19 [11]: 0.0039 % weight/volume; Bacteriostatic activity S. epidermidis [6, 12]: 0.000015 percent (w/v); Bacteriostatic activity Corynebact. Ax 7 [8, 12]: 0.0025 percent (w/v) |
